# Measurements published in paper PMC12120644, “Modulation of the Inflammatory Process through the Control of Cyclooxygenase Using Peptides Obtained from Lithobates Catesbeianus Identified by Molecular Docking” (ACS Omega, 2025).
# “Also recorded” adds a separate entry of the source. No end group written: not given here.
# Key:
# total cyclooxygenase = assay: COX inhibition assay (total COX activity, LPS-stimulated RAW 264.7); type: cell-based; conditions: RAW 264.7 stimulated with LPS 1 μg/mL for 4 h, peptide 1 mM, chemiluminescent enzymatic kit (Cayman), vs LPS control, t test P < 0.05
# Experimental: The in vitro total cyclooxygenase inhibition was evaluated using a chemiluminescent enzymatic kit (Cayman Chemical, MI), according to the manufacturer’s protocol. The RAW 264.7 cell line was purchased from the American Type Culture Collection (Rockville, MD) and routinely grown in DMEM supplemented with 10% fetal bovine serum (FBS). The cells were subcultured every 3 to 4 days at 1 × 10^8 cells/mL. The positive control group was exposed to lipopolysaccharide (LPS) at 1 μg/mL for 4 h to induce inflammation. Cells were collected and centrifuged at 600g for 10 min at 4 °C. The supernatant was carefully removed and cells were resuspended in 2 mL of DMEM, resulting in 1 × 10^8 cells/mL.
# 4 Effect of SGHPGAMGPVGPR (P1), IGPAGSAGSR (P2), GPSGPAGARGDK (P3), and […] (P4) peptides on the total COX activity. The RAW 264.7 cells were subcultured at 1 × 10^8 cells/mL density and stimulated with LPS at 1 μg/mL for 4 h. Cells were collected by centrifugation at a speed of 2.000 rpm for 10 min at 4 °C and were resuspended in DMEM. After that, cells were treated with the peptides, and ELISA was performed. Significant by the t test (P < 0.05). CTRL: control (cells stimulated with LPS).
# IL-6 = IL-6 immunoassay (ELISA), LPS-stimulated macrophages; type: cell-based, murine; conditions: LPS 1 μg/mL for 4 h, 1 mM the only significant of 0.025, 0.05, 0.5, and 1 mM, ELISA 405 nm
# Experimental: Quantification of IL-6 was determined using the Murine Mini ABTS IL-6 ELISA kit (PeproTech, Cat No. 900-M50), according to the manufacturer’s instructions. The absorbance was measured at 405 nm, and IL-6 concentrations were quantified based on the IL-6 standard curve (0−4000 pg/mL).
# 5 IL-6 concentration (pg/mL) in macrophages treated at 0.025, 0.05, 0.5, and 1.0 mM peptide 1 and exposure to 1 μg/mL LPS for 4 h. Ctrl-: Negative control (cells + DMEM); Ctrl+: Positive control 1 (cells + DMEM+ and LPS); P1 (cells + DMEM + peptide at different concentrations + LPS). Data (n = 3) are expressed as mean and standard error.
sequence,measurement,setting,value
SGHPGAMGPVGPR [Peptide P1],total COX activity (in words),total cyclooxygenase,effectively inhibiting total COX activity; also recorded: only peptide P1 exhibited an inhibitory capacity on the total COX activity; also recorded: only P1 demonstrated the ability to reduce the total COX activity
same,total COX activity (in words),total cyclooxygenase; listed as peptide 1,best results in decreasing the cells’ total COX
same,IL-6 levels (in words),IL-6; n = 3,downregulating IL-6 expression; also recorded: significantly downregulated IL-6 levels in a dose-dependent manner
same,IL-6 levels (in words),"IL-6; n = 3, listed as peptide 1",best results in decreasing the cells’ total COX and IL-6 cytokines
